Data taken from PubChem BioAssay (NCI).
Several values for one entry are separate records, joined by “and”; a condition that tells them apart may be missing. Equal entries are not always repeated.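 Results reflect a 48-hour exposure of cells in 96-well plates to compound at five concentrations. GI50 is the concentration that inhibits growth by half. At the TGI there is no net growth.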

Columns and labels:
Test in all cases: inhibition of tumour cell growth, NCI panel, 48 h
786-0 renal = tested on: 786-0 renal
BT-549 breast = tested on: BT-549 breast
HOP-62 NSCLC = tested on: HOP-62 NSCLC
M14 melanoma = tested on: M14 melanoma
MDA-MB-435 = tested on: MDA-MB-435
OVCAR-5 ovarian = tested on: OVCAR-5 ovarian
SK-MEL-2 melanoma = tested on: SK-MEL-2 melanoma
SK-MEL-28 melanoma = tested on: SK-MEL-28 melanoma
SK-OV-3 ovarian = tested on: SK-OV-3 ovarian
SNB-19 CNS = tested on: SNB-19 CNS

Structure (SMILES)	GI50 (786-0 renal) [µM]	TGI (786-0 renal)	GI50 (BT-549 breast) [µM]	TGI (BT-549 breast) [µM]	GI50 (HOP-62 NSCLC) [µM]	TGI (HOP-62 NSCLC) [µM]	GI50 (M14 melanoma) [µM]	TGI (M14 melanoma)	GI50 (MDA-MB-435) [µM]	TGI (MDA-MB-435)	GI50 (OVCAR-5 ovarian) [µM]	TGI (OVCAR-5 ovarian)	GI50 (SK-MEL-2 melanoma) [µM]	TGI (SK-MEL-2 melanoma)	GI50 (SK-MEL-28 melanoma) [µM]	TGI (SK-MEL-28 melanoma) [µM]	GI50 (SK-OV-3 ovarian) [µM]	TGI (SK-OV-3 ovarian) [µM]	GI50 (SNB-19 CNS) [µM]	TGI (SNB-19 CNS) [µM]
O=C(/C=C/c1ccco1)Nc1ncc(Cc2cccc(C(F)(F)F)c2)s1	0.163	17.8 µM	0.248	> 21.2	0.0965	6.32	0.0572	3.18 µM	0.0207	0.0533 µM	0.353	11.8 µM	0.0966	5.28 µM	1.1	> 50.2	0.0626	7.45	0.1	> 44.5
C[C@]12CCCN1CC1=NNC(=O)c3cc(F)cc4[nH]c2c1c34	26.2	> 100 µM	23.2	99.6	20.1	89.4	18.5	59.6 µM	23.7	80.6 µM	20.2	> 100 µM	22.3	52.4 µM	24.9	87.2	25.9	> 100	25.1	> 100
CC1NC(C(=O)O)Cc2cc(O)c(O)cc21 (stereo unspecified)		> 100 µM		> 100		> 100		> 100 µM		> 100 µM		> 100 µM		> 100 µM		> 100		> 100		> 100
CC(=O)NC(CS)C(=O)O (stereo unspecified)	> 100	> 100 µM and 58100 µM		> 100		45500	> 100	> 100 µM and 35500 µM	> 100	> 100 µM and 61900 µM	> 100	> 100 µM and 66200 µM	> 100	> 100 µM and 66300 µM	> 100	> 100	> 100	> 100	> 100	> 100
CCSc1nc(NC(C)c2ccccc2)c2cnn(CO)c2n1 (stereo unspecified)	59.9	> 100 µM	17.7	64.1	> 100	> 100	> 100	> 100 µM	21.1	> 100 µM	> 100	> 100 µM	> 100	> 100 µM	87.2	> 100	45.8	> 100	> 100	> 100
C=C1C(=O)O[C@@H]2C[C@@H]1CC[C@]1(C)O[C@H]1CC/C(C)=C/CC[C@@]2(C)O	17	31.2 µM	16.9	39.3	24.2	47.7	16.8	35.3 µM	18.3	41.1 µM	28.6	96 µM	64.4	> 100 µM			25.5	64	49.6	> 100
COc1ccc(CN2C(=O)/C(=C\C(=O)c3ccc(OCCN4CCCC4)cc3)c3ccccc32)cc1	1.68	3.19 µM	10.6	23.3	20.8	43.9	2.25	5.34 µM	1.81	3.74 µM	1.78	4.76 µM	17.1	37.4 µM	1.79	3.42	18.6	34	3.83	15.1
O=C(Nc1ccc(Oc2ccc(NC(=O)Nc3ccccc3Cl)cc2)cc1)Nc1ccccc1Cl	22.6	> 69.2 µM	5.06	25	12.4	34.1	> 44.6	> 100 µM	> 100	> 100 µM	27.6	> 100 µM	8.17	> 20.4 µM	3.54	> 100	9.33	38.1	17	43.8
O=C(/C=C\c1cc(Br)ccc1O)/C=C/c1cc(Br)ccc1O	1.23	2.55 µM	0.897	3.84	3.22	9.44	0.651	3.08 µM	0.355	1.53 µM	1.67	3.33 µM	2.25	6.15 µM	0.555	1.96	4.41	12.3	1.03	2.55
CCC(CC)c1cc(N[C@H]2CC[C@H](N)C2)n2nccc2n1	2.22	> 100 µM	1.36	3.22	0.99	> 100	1.74	5.4 µM	1.38	3.76 µM	0.533	> 100 µM	1.64	3.64 µM	1.93	5.24	3.44	> 100	1.06	> 100
CN1CCN(Cc2ccc(NC(=O)c3cncc(C#Cc4c(N)ncc5c(F)cccc45)c3)cc2C(F)(F)F)CC1	0.873	1.62 µM	1.64	4.32	1.28	3.87	0.388	1.17 µM	0.597	1.24 µM	0.794	1.56 µM	0.809	1.93 µM	0.831	1.56	2.14	7.45	0.867	1.59
COC(=O)CC1C2(C)C3=C(C)C(c4ccoc4)CC3OC2C2OC(=O)C3(C)C=CC(=O)C1(C)C23 (stereo unspecified)		2.34 µM		2.35		9.1		3.25 µM		2.69 µM		5.44 µM		3.58 µM		2.66		14.9		7.1
NC(CP(=O)(O)O)C(=O)O (stereo unspecified)		> 100 µM		> 100		> 100		> 100 µM		> 100 µM		> 100 µM		> 100 µM		> 100		> 100		> 100
